Reference: PMC12195982, “Design, Synthesis, and In Vitro Evaluation of 4-(Arylchalcogenyl)methyl)-1H-1,2,3-triazol-1-yl-menadione: Exploring Their Potential Against Tuberculosis” (Pharmaceuticals, 2025)
Converted amounts (≈) assume the structure as drawn.

test system: INH- and RIF-resistant Mtb (strain T113/09, KatG and rpoB mutation); assay type: cell-based, Mycobacterium tuberculosis

Structure (SMILES) | MIC INH/RIFR-Mtb [µg/mL] | fold more potent than INH
CC1=C(Cn2cc(C[Se]c3ccccc3)nn2)C(=O)c2ccccc2C1=O [Compound 9a, 2-methyl-3-((4-((phenylselanyl)methyl)-1H-1,2,3-triazolyl)methyl)naphthalene-1,4-dione] | 3 (≈ 7.1 µM) | at least 7 fold
CC1=C(Cn2cc(C[Se]c3ccc(Cl)cc3)nn2)C(=O)c2ccccc2C1=O [Compound 9b, 2-((4-(((4-chlorophenyl)selanyl)methyl)-1H-1,2,3-triazolyl)methyl)-3-methylnaphthalene-1,4-dione] | ≤3 | at least 7 fold
CC1=C(Cn2cc(C[Se]c3cccc(C(F)(F)F)c3)nn2)C(=O)c2ccccc2C1=O [Compound 9c] | >99 | 
CC1=C(C(c2ccccc2)n2cc(C[Se]c3ccccc3)nn2)C(=O)c2ccccc2C1=O (stereo not shown) [Compound 9g, 2-methyl-3-(phenyl(4-((phenylselanyl)methyl)-1H-1,2,3-triazolyl)methyl)naphthalene-1,4-dione] | ≤3 | at least 7 fold
CC1=C(C(c2ccc(C)cc2)n2cc(C[Se]c3ccccc3)nn2)C(=O)c2ccccc2C1=O (stereo not shown) [Compound 9h, 2-methyl-3-((4-((phenylselanyl)methyl)-1H-1,2,3-triazolyl)(p-methylphenyl)methyl) naphthalene-1,4-dione] | ≤3 | at least 7 fold
NNC(=O)c1ccncc1 [INH, isoniazid, reference compound] | 8 (≈ 58.3 µM) | 
